This note sets out measurements from patent US20250320213A1, “Nitrogen-Containing Heterocyclic Compounds” (Pfizer Inc., priority 2024, published 2025).

Counter-ions that a name gives are not always drawn. Like-named read-outs stand apart in the source and are kept apart here.

One experiment concerns the target T1, STAT6 (Homo sapiens, UniProt P42226).
T1 construct: stably transfected HaCaT keratinocyte cell line, which expresses NanoLuc luciferase reporter gene under the transcriptional control of the STAT6 responsive promoter; endogenous in cells; host or cells: HaCaT keratinocyte reporter cell line (stably transfected with a NanoLuc reporter)
T1 sequence (P42226 1-847): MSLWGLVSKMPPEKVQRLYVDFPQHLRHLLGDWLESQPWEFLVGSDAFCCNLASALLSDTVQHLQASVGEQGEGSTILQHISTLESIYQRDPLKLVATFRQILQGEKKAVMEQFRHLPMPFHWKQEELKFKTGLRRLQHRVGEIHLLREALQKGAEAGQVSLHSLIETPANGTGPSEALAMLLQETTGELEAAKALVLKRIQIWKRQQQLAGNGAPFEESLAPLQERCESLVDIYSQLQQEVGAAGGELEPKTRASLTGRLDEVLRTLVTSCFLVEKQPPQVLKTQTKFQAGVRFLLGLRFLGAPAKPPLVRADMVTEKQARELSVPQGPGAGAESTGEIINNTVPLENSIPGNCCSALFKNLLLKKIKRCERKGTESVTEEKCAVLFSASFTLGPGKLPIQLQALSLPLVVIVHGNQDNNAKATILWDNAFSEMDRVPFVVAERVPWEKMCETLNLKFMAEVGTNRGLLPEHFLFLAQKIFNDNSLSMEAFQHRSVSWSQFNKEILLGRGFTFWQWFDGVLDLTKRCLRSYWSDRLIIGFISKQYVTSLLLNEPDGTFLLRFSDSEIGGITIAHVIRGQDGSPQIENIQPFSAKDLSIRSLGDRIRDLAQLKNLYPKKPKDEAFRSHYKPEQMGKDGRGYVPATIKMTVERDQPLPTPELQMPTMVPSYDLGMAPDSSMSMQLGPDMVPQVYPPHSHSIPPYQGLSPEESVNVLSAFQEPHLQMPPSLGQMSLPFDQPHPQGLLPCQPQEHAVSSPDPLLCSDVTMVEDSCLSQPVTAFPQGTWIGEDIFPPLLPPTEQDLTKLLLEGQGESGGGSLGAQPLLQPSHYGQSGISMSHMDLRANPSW
In words: STAT6 Reporter Luciferase Assay (IL-13 stimulated HaCaT keratinocyte NanoLuc reporter cells). Format: cell-based. The following applies: read-out: Reporter EC50. The method in brief:
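HaCaT cells stably carrying a NanoLuc reporter driven by the STAT6-responsive IL-13Ra2 promoter were preincubated with compounds for 2 h at 37 °C in 2% FBS medium. Cells were then stimulated with 0.12 nM IL-13 for 4 h, and luminescence was read after Nano-Glo substrate. Compounds ran as 11-point 4-fold dilutions in duplicate.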

The test system of experiment [1] is CCL17 secretion in peripheral human whole blood. In words: Human Whole Blood (HWB) CCL17 TR-FRET Assay (IL-13 stimulated CCL17 secretion). The experiment is classed as cell-based. The method in brief: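 Heparinized peripheral human whole blood was preincubated with compound (11-point, 3-fold series, duplicate) for 2 h at 37 °C, then stimulated with IL-13 at 10 ng/mL final for 48 h at 37 °C. Secreted CCL17 in the serum was quantified by TR-FRET sandwich immunoassay (665/615 nm ratio, 16 h RT); IC50 derived.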

[2] abbreviates: STAT6 NanoLuc luciferase reporter, IL-13 stimulated HaCaT keratinocyte cells.
[3] abbreviates: inhibition of CCL17 secretion in human whole blood, 10 ng/mL IL13, 48 hours.
Where [4] appears, read: IL-13 stimulated HaCaT STAT6 NanoLuc reporter cells.
Where [5] appears, read: Homo sapiens, 48 h, inhibition of CCL17 secretion in human whole blood, 10 ng/mL IL13, 48 hours.
The mark [6] stands for this setting: Homo sapiens, 48 h, human whole blood, 10 ng/mL IL13, 48 hours.
The mark [7] stands for this setting: Homo sapiens, 48 h, human whole blood, IL-13 stimulated.
The mark [8] stands for this setting: human whole blood, IL-13 stimulated, 48 hours.

A word on the EC50: it is the midpoint of the concentration-response curve. In general, IC50 refers to the point on the concentration scale where inhibition reaches its midpoint. Take `Cc1nc(C(=O)NCc2ccc(NC(=O)N(C)C)cc2)c2n1C(C)CN(c1ccc(C(=O)N(C)C)cn1)C2` (single isomer, unassigned) [Example 54, rel-(R or S)-7-(5-(dimethylcarbamoyl)pyridin-2-yl)-N-(4-(3,3-dimethylureido)benzyl)-3,5-dimethyl-5,6,7,8-tetrahydroimidazo[1,5-a]pyrazine-1-carboxamide]: the EC50 on STAT6 (setting [2]) came to 120 nM. In addition, in experiment [1] (setting [3]), the IC50 is 332 nM.

In the case of `CC(C)n1nc(C(=O)NCc2ccc(NC(=O)N3CCN(C)CC3)cc2Cl)c2c1[C@@H](C)CN(c1ccc(C(=O)N(C)C)cc1)C2` [Example 712, (S)-N-(2-chloro-4-(4-methylpiperazine-1-carboxamido)benzyl)-5-(4-(dimethylcarbamoyl)phenyl)-1-isopropyl-7-methyl-4,5,6,7-tetrahydro-1H-pyrazolo[4,3-c]pyridine-3-carboxamide], on STAT6 (setting [4]), the half-maximal effective concentration (EC50) was 3 nM. In experiment [1] (Homo sapiens, 48 h, human whole blood, IL-13 10 ng/mL), this compound registered an IC50 of 64 nM.

For the compound `CC(C)n1nc(C(=O)NCc2ccc(-c3cccc(=O)[nH]3)cc2)c2c1CCN(c1ccc(C(=O)N(C)C)cn1)C2` [Example 44, 5-(5-(dimethylcarbamoyl)pyridin-2-yl)-1-isopropyl-N-(4-(6-oxo-1,6-dihydropyridin-2-yl)benzyl)-4,5,6,7-tetrahydro-1H-pyrazolo[4,3-c]pyridine-3-carboxamide], the EC50 on STAT6 (setting [2]) stood at 503 nM. Further, the IC50 in experiment [1] (setting [5]) was 5400 nM.

For `CC(C)n1nc(C(=O)NCc2ccc(NC(=O)N3CC(F)(F)C3)cc2)c2c1[C@@H](C)CN(c1ccc(C(=O)N(C)C)cn1)C2` [Example 599, (S)-N-(4-(3,3-difluoroazetidine-1-carboxamido)benzyl)-5-(5-(dimethylcarbamoyl)pyridin-2-yl)-1-isopropyl-7-methyl-4,5,6,7-tetrahydro-1H-pyrazolo[4,3-c]pyridine-3-carboxamide], the EC50 on STAT6 (setting [4]) came out at 1 nM. The same compound showed an IC50 in experiment [1] (setting [6]) of 12 nM.

Regarding `CC(C)n1nc(C(=O)NCc2ccc(NC(=O)N(C)C)cc2)c2c1CCN(c1ncc(C(=O)N(C)C)cn1)[C@H]2C` (single isomer, unassigned) [Example 509], the EC50 at STAT6 (setting [4]) came out at 3320 nM. The compound also displayed an IC50 in experiment [1] (setting [7]) of 8170 nM.

In the case of `CCC(C)n1nc(C(=O)NCc2ccc(NC(=O)N(C)C)cc2)c2c1[C@@H](C)CN(c1ccc(C(=O)N(C)C)cn1)C2` (single isomer, unassigned) [Example 319, (S)-1-((R*)-sec-butyl)-5-(5-(dimethylcarbamoyl)pyridin-2-yl)-N-(4-(3,3-dimethylureido)benzyl)-7-methyl-4,5,6,7-tetrahydro-1H-pyrazolo[4,3-c]pyridine-3-carboxamide], the EC50 on STAT6 (setting [4]) turned out to be 1 nM. Also, the IC50 in experiment [1] (setting [8]) is 13 nM.

Consider `CC(C)n1nc(C(=O)NCc2ccc(NC(=O)N3CCN(C)CC3)cc2)c2c1CCN(c1ccc(C(=O)N(C)C)cn1)C2` [Example 177, 5-(5-(dimethylcarbamoyl)pyridin-2-yl)-1-isopropyl-N-(4-(4-methylpiperazine-1-carboxamido)benzyl)-4,5,6,7-tetrahydro-1H-pyrazolo[4,3-c]pyridine-3-carboxamide], for which the half-maximal effective concentration (EC50) on STAT6 (setting [2]) stood at 8 nM. The compound further showed a 50% inhibitory concentration (IC50) in experiment [1] (setting [5]) of 51 nM.

`CCC1CN(c2ccc(C(=O)N(C)C)cn2)Cc2c(C(=O)NCc3ccc(NC(=O)N(C)C)cc3)n[nH]c21` (single isomer, unassigned) [Example 82, rel-(R or S)-5-(5-(dimethylcarbamoyl)pyridin-2-yl)-N-(4-(3,3-dimethylureido)benzyl)-7-ethyl-4,5,6,7-tetrahydro-1H-pyrazolo[4,3-c]pyridine-3-carboxamide]: the EC50 on STAT6 (setting [2]) was 101 nM. In experiment [1] (setting [3]), this compound had an IC50 of 112 nM.

On to `CN(C)C(=O)Nc1ccc(CNC(=O)c2nc(C(F)(F)F)n3c2CN(c2ccc(-c4nccn4C)cn2)CC3)cc1` [Example 42, N-(4-(3,3-Dimethylureido)benzyl)-7-(5-(1-methyl-1H-imidazol-2-yl)pyridin-2-yl)-3-(trifluoromethyl)-5,6,7,8-tetrahydroimidazo[1,5-a]pyrazine-1-carboxamide], for which the concentration for a half-maximal effect (EC50) at STAT6 (setting [2]) turned out to be 10 nM. For the same compound, the 50% inhibitory concentration (IC50) in experiment [1] (setting [5]) amounted to 136 nM.

Consider `CCn1nc(C(=O)NCc2ccc(NC(=O)N(C)C)cn2)c2c1[C@@H](C)CN(c1ncc(C(=O)N(C)C)cn1)C2` [Example 305, (S)-5-(5-(dimethylcarbamoyl)pyrimidin-2-yl)-N-((5-(3,3-dimethylureido)pyridin-2-yl)methyl)-1-ethyl-7-methyl-4,5,6,7-tetrahydro-1H-pyrazolo[4,3-c]pyridine-3-carboxamide], for which the EC50 at STAT6 (setting [4]) was 5 nM. In experiment [1] (setting [7]), half-maximal inhibition (IC50) required 7 nM.

Turning to `CC(C)n1nc(C(=O)NCc2ccc(NC(=O)N3CCN(C)CC3)cc2)c2c1[C@@H](C)CN(c1ccc(-n3ccccc3=O)cn1)C2` [Example 609, (S)-1-isopropyl-7-methyl-N-(4-(4-methylpiperazine-1-carboxamido)benzyl)-5-(2-oxo-2H-[1,3′-bipyridin]-6′-yl)-4,5,6,7-tetrahydro-1H-pyrazolo[4,3-c]pyridine-3-carboxamide], the EC50 on STAT6 (setting [4]) turned out to be 1 nM. The midpoint of inhibition in experiment [1] (setting [6]), the IC50, lay at 7 nM.

Regarding `CC(C)n1nc(C(=O)NCc2ccc(NC(=O)N3CC4(CCN(C)CC4)C3)c(F)c2)c2c1[C@@H](C)CN(c1ccc(-n3ccccc3=O)cn1)C2` [Example 632, (S)-N-(3-fluoro-4-(7-methyl-2,7-diazaspiro[3.5]nonane-2-carboxamido)benzyl)-1-isopropyl-7-methyl-5-(2-oxo-2H-[1,3′-bipyridin]-6′-yl)-4,5,6,7-tetrahydro-1H-pyrazolo[4,3-c]pyridine-3-carboxamide], the half-maximal effective concentration (EC50) at STAT6 (setting [4]) was determined as 5 nM. Further, inhibition in experiment [1] (setting [6]) was half-maximal at 39 nM (IC50).

Regarding `CCn1nc(C(=O)NCc2ccc(C(=O)NC)cc2)c2c1C(C(F)(F)F)CN(c1ccc(C(=O)N(C)C)cn1)C2` (single isomer, unassigned) [Example 468, rel-(R or S)-5-(5-(dimethylcarbamoyl)pyridin-2-yl)-1-ethyl-N-(4-(methylcarbamoyl)benzyl)-7-(trifluoromethyl)-4,5,6,7-tetrahydro-1H-pyrazolo[4,3-c]pyridine-3-carboxamide], the EC50 at STAT6 (setting [4]) was 2.2 nM. This compound yielded an IC50 in experiment [1] (setting [8]) of 12 nM.

For `CC(C)n1nc(C(=O)NCc2ccc(NC(=O)N(C)C)cc2)c2c1C(C)(C)CN(c1ccc(C(=O)N(C)C)cn1)C2` [Example 247, 5-(5-(dimethylcarbamoyl)pyridin-2-yl)-N-(4-(3,3-dimethylureido)benzyl)-1-isopropyl-7,7-dimethyl-4,5,6,7-tetrahydro-1H-pyrazolo[4,3-c]pyridine-3-carboxamide], the EC50 on STAT6 (setting [4]) stood at 1 nM. Moreover, 9 nM corresponded to half-maximal inhibition in experiment [1] (setting [7]) (IC50).

For `CC(C)n1nc(C(=O)NCc2ccc(NC(=O)N3CCC3)cc2)c2c1[C@@H](C)CN(c1ccc(C(=O)N(C)C)cn1)C2` [Example 591, (S)-N-(4-(azetidine-1-carboxamido)benzyl)-5-(5-(dimethylcarbamoyl)pyridin-2-yl)-1-isopropyl-7-methyl-4,5,6,7-tetrahydro-1H-pyrazolo[4,3-c]pyridine-3-carboxamide], the EC50 at STAT6 (setting [4]) was found to be 1 nM. Besides, in experiment [1] (setting [6]), half-maximal inhibition (IC50) required 10 nM.

As for `Cc1nc(C(=O)NCc2ccc(NC(=O)N(C)C)cc2)c2n1C(C)CN(c1ccc(C(=O)N(C)C)cn1)C2` (racemic) [Example 9, rac-(R)-7-(5-(Dimethylcarbamoyl)pyridin-2-yl)-N-(4-(3,3-dimethylureido)benzyl)-3,5-dimethyl-5,6,7,8-tetrahydroimidazo[1,5-a]pyrazine-1-carboxamide formate], the 50% effective concentration (EC50) on STAT6 (setting [2]) was 15 nM. 27 nM corresponded to half-maximal inhibition in experiment [1] (setting [3]) (IC50).

For the compound `CCn1nc(C(=O)NCc2ccc(-c3ncc[nH]3)cc2)c2c1[C@@H](C)CN(c1ccc(C(=O)N(C)C)cn1)C2` [Example 283, (S)-N-(4-(1H-imidazol-2-yl)benzyl)-5-(5-(dimethylcarbamoyl)pyridin-2-yl)-1-ethyl-7-methyl-4,5,6,7-tetrahydro-1H-pyrazolo[4,3-c]pyridine-3-carboxamide], the 50% effective concentration (EC50) on STAT6 (setting [4]) amounted to 2 nM. The same compound had an IC50 in experiment [1] (setting [7]) of 11 nM.
